Structures are written as SMILES.

For two compounds, EC50 results are on record in ChEMBL document CHEMBL1121396, “10,10-Difluoro-13-dehydroprostacyclin: a chemically and metabolically stabilized potent prostacyclin” (J Med Chem, 1980).

A short description of assay [1]: Tested for effect to cause relaxation of bovine coronary artery. It counts as functional, tissue-based, Bos taurus.
The nature of assay [2]: Tested for effect to cause relaxation of […] mesenteric artery previously contracted by PGF2-alpha. It counts as functional.

For `CCCCC[C@H](O)C#CC1C2C/C(=C\CCCC(=O)O)OC2C(F)(F)C1O` (some centres undefined), the concentration giving a half-maximal response (EC50) (as a rule, the midpoint of the concentration-response curve) in assay [1] came to 8.5 nM; in assay [2], 2.3 nM.
Taken in the same sequence, the figures for `CCCCC[C@H](O)/C=C/[C@@H]1[C@H]2C/C(=C/CCCC(=O)O)O[C@H]2C[C@H]1O` [EPOPROSTENOL] were 28 nM and 3.3 nM.
